Several values for one entry are separate records, joined by “and”; a condition that tells them apart may be missing. Equal values may be shown once.
Tested on: 233499-124-R-J3-PDC complex spheroid viability
Assay: Anticancer human tumor 233499-124-R-J3-PDC patient-derived colon adenocarcinoma cell line growth inhibition [CLK]
Details: for viability, T/C: stronger effect = lower value; active = viability on the fitted dose curve at most 10% of control; inactive = the rest
Procedure, shortened: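 Patient-derived tumor cells grown as complex spheroids with HUVEC endothelial cells and mesenchymal stem cells, treated with drug combinations. Concentrations descend in half-log steps from near clinical Cmax, or from 10 microM if Cmax unknown.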

[1] = curve of first compound, second compound 0.0316 µM
[2] = curve of first compound, second compound 0.1 µM
[3] = curve of first compound, second compound 0.316 µM
[4] = curve of first compound, second compound 1 µM
[5] = curve of first compound, second compound 3.16 µM
[6] = curve of first compound, second compound 10 µM
[7] = second compound 0.0316 µM, first compound 0.0316 µM
[8] = second compound 0.0316 µM, first compound 0.1 µM
[9] = second compound 0.0316 µM, first compound 0.316 µM
[10] = second compound 0.0316 µM, first compound 1 µM
[11] = second compound 0.1 µM, first compound 0.0316 µM
[12] = second compound 0.1 µM, first compound 0.1 µM
[13] = second compound 0.1 µM, first compound 0.316 µM
[14] = second compound 0.1 µM, first compound 1 µM
[15] = second compound 0.316 µM, first compound 0.0316 µM
[16] = second compound 0.316 µM, first compound 0.1 µM
[17] = second compound 0.316 µM, first compound 0.316 µM
[18] = second compound 0.316 µM, first compound 1 µM
[19] = second compound 1 µM, first compound 0.0316 µM
[20] = second compound 1 µM, first compound 0.1 µM
[21] = second compound 1 µM, first compound 0.316 µM
[22] = second compound 1 µM, first compound 1 µM
[23] = second compound 3.16 µM, first compound 0.0316 µM
[24] = second compound 3.16 µM, first compound 0.1 µM
[25] = second compound 3.16 µM, first compound 0.316 µM
[26] = second compound 3.16 µM, first compound 1 µM
[27] = second compound 10 µM, first compound 0.0316 µM
[28] = second compound 10 µM, first compound 0.1 µM
[29] = second compound 10 µM, first compound 0.316 µM
[30] = second compound 10 µM, first compound 1 µM
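Also: spheroids exposed to the drug combinations for seven days.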
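For viability, T/C in this document: percent viability relative to DMSO vehicle control wells taken as 100%.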

CCN1CCN(Cc2ccc(Nc3ncc(F)c(-c4cc(F)c5nc(C)n(C(C)C)c5c4)n3)nc2)CC1 + CNC(=O)c1ccc(Nc2nc(OC3CCCC3)c3c(-c4ccc5nc(C)oc5c4)c[nH]c3n2)c(OC)c1
> 1 µM: IC50 [1] | IC50 [2] | IC50 [3] | IC50 [5] | IC50 [6]
inactive: viability, T/C (second compound 0.0316 µM, first compound 0.00316 µM) 88.3% | viability, T/C (second compound 0.0316 µM, first compound 0.01 µM) 98.3% | viability, T/C [7] 90% | viability, T/C [8] 106% | viability, T/C [9] 102% | viability, T/C [10] 70.1% | viability, T/C (second compound 0.1 µM, first compound 0.00316 µM) 71.7% | viability, T/C (second compound 0.1 µM, first compound 0.01 µM) 91.6% | viability, T/C [11] 84.8% | viability, T/C [12] 83.8% | viability, T/C [13] 89.3% | viability, T/C [14] 64% | viability, T/C (second compound 0.316 µM, first compound 0.00316 µM) 68.8% | viability, T/C (second compound 0.316 µM, first compound 0.01 µM) 84.3% | viability, T/C [15] 78% | viability, T/C [16] 94.2% | viability, T/C [17] 62.7% | viability, T/C [18] 53.1% | viability, T/C (second compound 1 µM, first compound 0.00316 µM) 77.2% | viability, T/C (second compound 1 µM, first compound 0.01 µM) 85.9% | viability, T/C [19] 74.3% | viability, T/C [20] 85.3% | viability, T/C [21] 84.5% | viability, T/C [22] 49.2% | viability, T/C (second compound 3.16 µM, first compound 0.00316 µM) 81.1% | viability, T/C (second compound 3.16 µM, first compound 0.01 µM) 75.2% | viability, T/C [23] 78.1% | viability, T/C [24] 78.7% | viability, T/C [25] 97.2% | viability, T/C [26] 57.6% | viability, T/C (second compound 10 µM, first compound 0.00316 µM) 76.4% | viability, T/C (second compound 10 µM, first compound 0.01 µM) 80.9% | viability, T/C [27] 66.8% | viability, T/C [28] 74.5% | viability, T/C [29] 60.1% | viability, T/C [30] 51.1%
0.971 µM: IC50 [4]

CCc1c2c(nc3ccc(O)cc13)-c1cc3c(c(=O)n1C2)COC(=O)[C@]3(O)CC
inactive: viability, T/C (compound 0.00316 µM) 88.5% and 83.9% | viability, T/C (compound 0.01 µM) 62.1% and 59.6% | viability, T/C (compound 0.0316 µM) 87.1% and 45.6% | viability, T/C (compound 0.1 µM) 92.3% and 52.8% | viability, T/C (compound 0.316 µM) 80.8% and 49.8% | viability, T/C (compound 1 µM) 42% and 37.8%

CC(Nc1ccc2c(c1)OCCn1cc(N3C(=O)OCC3C(F)F)nc1-2)C(N)=O (stereo unspecified)
inactive: viability, T/C (compound 0.0316 µM) 94% | viability, T/C (compound 0.1 µM) 83.7% | viability, T/C (compound 0.316 µM) 79.8% | viability, T/C (compound 1 µM) 74.8% | viability, T/C (compound 3.16 µM) 61.7% | viability, T/C (compound 10 µM) 51.9%
> 10 µM: IC50 (curve of compound)

Nc1ccccc1NC(=O)c1ccc(CNC(=O)OCc2cccnc2)cc1
active: viability, T/C (compound 10 µM) 0.79% and 1.47%
inactive: viability, T/C (compound 0.0316 µM) 91.4% and 90.3% | viability, T/C (compound 0.1 µM) 87.2% and 89.8% | viability, T/C (compound 0.316 µM) 74.4% and 96.3% | viability, T/C (compound 1 µM) 78% and 89.7% | viability, T/C (compound 3.16 µM) 32.4% and 33.4%
2 µM and 2.25 µM: IC50 (curve of compound)

Nc1ccn(C2OC(CO)C(O)C2(F)F)c(=O)n1 (stereo unspecified)
inactive: viability, T/C (compound 0.0316 µM) 100% and 98% | viability, T/C (compound 0.1 µM) 80.3% and 47.1% | viability, T/C (compound 0.316 µM) 39.9% and 22.4% | viability, T/C (compound 1 µM) 33.8% and 20.9% | viability, T/C (compound 3.16 µM) 38.9% and 21.9% | viability, T/C (compound 10 µM) 41.3% and 15.8%
0.237 µM and 0.0936 µM: IC50 (curve of compound)

Nc1ccccc1NC(=O)c1ccc(CNC(=O)OCc2cccnc2)cc1 + CNC(=O)c1ccc(Nc2nc(OC3CCCC3)c3c(-c4ccc5nc(C)oc5c4)c[nH]c3n2)c(OC)c1
0.443 µM: IC50 [5]
1.83 µM: IC50 [1]
active: viability, T/C (second compound 0.0316 µM, first compound 10 µM) 0.94% | viability, T/C (second compound 0.1 µM, first compound 3.16 µM) 9.08% | viability, T/C (second compound 0.1 µM, first compound 10 µM) 0.5% | viability, T/C (second compound 0.316 µM, first compound 3.16 µM) 4.82% | viability, T/C (second compound 0.316 µM, first compound 10 µM) 0.23% | viability, T/C (second compound 1 µM, first compound 3.16 µM) 2.15% | viability, T/C (second compound 1 µM, first compound 10 µM) 0.09% | viability, T/C [26] 8.74% | viability, T/C (second compound 3.16 µM, first compound 3.16 µM) 1.22% | viability, T/C (second compound 3.16 µM, first compound 10 µM) 0.1% | viability, T/C (second compound 10 µM, first compound 3.16 µM) 1.09% | viability, T/C (second compound 10 µM, first compound 10 µM) 0.15%
0.233 µM: IC50 [3]
inactive: viability, T/C [7] 96.7% | viability, T/C [8] 86% | viability, T/C [9] 91.8% | viability, T/C [10] 79.7% | viability, T/C (second compound 0.0316 µM, first compound 3.16 µM) 23.1% | viability, T/C [11] 64.9% | viability, T/C [12] 67.4% | viability, T/C [13] 63.6% | viability, T/C [14] 44.8% | viability, T/C [15] 77% | viability, T/C [16] 66.7% | viability, T/C [17] 43.6% | viability, T/C [18] 20% | viability, T/C [19] 74.6% | viability, T/C [20] 70.1% | viability, T/C [21] 35.7% | viability, T/C [22] 15.2% | viability, T/C [23] 71.1% | viability, T/C [24] 65.6% | viability, T/C [25] 67.2% | viability, T/C [27] 70.8% | viability, T/C [28] 50.4% | viability, T/C [29] 44.5% | viability, T/C [30] 20.6%
0.199 µM: IC50 [4]
0.731 µM: IC50 [2]
0.157 µM: IC50 [6]

From PubChem BioAssay AID2060613 (Molecular Pharmacology Branch, DTP, NCI, 2025)
